The target of the assay is T1, HIV-1 protease (Human immunodeficiency virus type 1 group M subtype B, UniProt P04585).
T1 construct: 2.6 nM of HIV-1 protease
Put plainly: Assay for inhibitory effect on HIV protease (residual enzyme activity, HPLC of substrate cleavage). The settings on record: pH 5.5; for Ki / kinact: HIV-1 protease 2.6 nM; for Ki: inhibition constant; for kinact: rate constant of covalent bond formation, read-out: kina (converted); for kinact/KI: second order rate constant, HIV-1 protease, read-out: kina /KI (converted). It counts as biochemical. The procedure: The inhibitory effect on HIV protease of the compounds of the present invention was determined by the following method.
To a buffer solution comprising 50 mM sodium acetate, pH 5.5, 1 mM dithiothreitol(DTT), 1 mM ethylenediaminetetraacetate (EDTA), 0.75M ammonium sulfate, 0.2M sodium chloride and 0.1% NP40(NONIDET P-40; Sigma Chemical Co., U.S.A.), were added various concentrations of a compound selected from Compound Nos. 1 to 92 to prepare a preincubation solution. Inhibition reaction was started with the addition of 2.6 nM of HIV-1 protease to the preincubation solution. Each 10 μl of the reaction solution was taken at a given time interval and added to 80 μl of assay solution containing 100 μM of reaction substrate in the same buffer solution as above to assay for the residual enzyme activity. In this context, an oligopeptide(KM =20 μM) consisting of 11 amino acids, i.e., Ser-Ile-Ala-Glu-(p-NO2)-Phe-Leu-Val-Arg-Ala-Lys-His, was used as a reaction substrate, which oligopeptide was to be cleaved in two by the breakage of amide bond between (P--NO2)-Phe and Leu upon the attack of HIV protease. The reaction rate was determined by subjecting the substrate before the reaction and the product after the reaction to HPLC separation and then measuring the relative amount of the product, using the strong absorbance of (p--NO2)-Phe at 280 nm. The amount of reduction in enzyme activity according to the elapsed time were measured and the natural logarithmic values(ln) of the measured amounts were plotted against time to obtain a linear graph and kobs was calculated from the slope of the linear graph.
The inhibition constant was calculated according to the following equation: [formula] wherein: kobs is a rate constant indicating the rate of reduction in enzyme activity according to the elapsed time under the presence of a given concentration of inhibitor,
kina is a rate constant indicating the rate of chemical reaction forming covalent bond between an enzyme and an inhibitor in Michaelis-Menten complex,
KI is an inhibition constant indicating the dissociation rate of Michaelis-Menten complex into an enzyme and an inhibitor, and
[I] means the inhibitor concentration.
The above equation is applicable to an experiment carried out under the condition in which the concentration of inhibitor is far higher than that of enzyme(Steady State Kinetic). […] The inhibition constants KI and kina and second order rate constant kina /KI were obtained by inputting the value of [E]/([E]+[EI]+[EI']) into KINSIM/FITSIM program. FIG. 1 exemplifies a result of the experiment determining the binding ratio of enzymes and inhibitors, which result was obtained by reacting the enzyme and the inhibitor in various concentration ratios for a sufficient time period(at least for 30 minutes), and then plotting the relative activity of the remaining enzyme against [conc. of inhibitor]/[conc. of enzyme].

Consider 24 compounds from patent US5744621A, “Irreversible HIV protease inhibitors, intermediates, compositions and processes for the preparation thereof” (Lucky Limited., priority 1992, dated 1998).

SMILES strings stand for the structures. Where only a bound is given, the exact number is not on record here.

Broadly, the Ki is the dissociation constant of the complex between target and ligand, obtained from inhibition or displacement. Low readings indicate tighter binding, high ones weaker binding.

For `CC[C@H](C)[C@H](NC(=O)C[C@@H]1O[C@@H]1[C@H](Cc1ccccc1)NC(=O)[C@H](CC(N)=O)NC(=O)COc1ccccc1)C(=O)OC` [compound 4], the affinity, expressed as Ki, was 60 nM; the kinact was 0.0015 s⁻¹; the kinact/KI is 25000 M⁻¹ s⁻¹.
Take `CC[C@H](C)[C@H](NC(=O)C[C@@H]1O[C@@H]1[C@H](CC1CCCCC1)NC(=O)[C@H](CC(N)=O)NC(=O)c1ccc2ccccc2n1)C(=O)OC` [compound 5]: the affinity, expressed as Ki, was 92 nM; the kinact was 0.00333 s⁻¹; the kinact/KI was 36700 M⁻¹ s⁻¹.
The matching figures for `COC(=O)C(NC(=O)C(CCC(N)=O)NC(=O)C[C@@H]1O[C@@H]1[C@H](Cc1ccccc1)NC(=O)[C@H](CC(N)=O)NC(=O)COc1cccc2ccccc12)C(C)C` (stereo partly shown) [compound 16]: 420 nM, 0.0025 s⁻¹ and 6000 M⁻¹ s⁻¹.
For the compound `CC[C@H](C)[C@H](NC(=O)C[C@@H]1O[C@@H]1[C@H](Cc1ccccc1)NC(=O)[C@H](CC(N)=O)NC(=O)c1ccc2ccccc2n1)C(=O)N1CCOCC1` [compound 29], the Ki was over 10000 nM.
Consider `CNC(=O)[C@@H](NC(=O)C[C@@H]1O[C@@H]1[C@H](Cc1ccccc1)NC(=O)[C@H](CC(N)=O)NC(=O)c1ccc2ccccc2n1)C(C)C` [compound 30], for which affinity was put at a Ki of 22 nM, the kinact was 0.00333 s⁻¹ and the kinact/KI is 183000 M⁻¹ s⁻¹.
The matching figures for `CONC(=O)[C@@H](NC(=O)C[C@@H]1O[C@@H]1[C@H](Cc1ccccc1)NC(=O)[C@H](CC(N)=O)NC(=O)c1ccc2ccccc2n1)C(C)C` [compound 34]: 15 nM, 0.00267 s⁻¹ and 183000 M⁻¹ s⁻¹.
Turning to `CC[C@H](C)[C@H](NC(=O)C[C@@H]1O[C@@H]1[C@H](Cc1ccccc1)NC(=O)[C@@H](NC(=O)OCc1ccccn1)C(C)C)C(=O)OC` [compound 38, N-{N-L-[[N-(2-pyridylmethoxycarbonyl)-L-valinyl)-amino]-(4R,3S)-epoxy-6-phenyl-hexanoyl}-L-isoleucine methyl ester], the Ki is over 10000 nM.
Turning to `CC(C)(C)OC(=O)N[C@@H](Cc1ccccc1)[C@H]1O[C@H]1CCc1ccccc1` [compound 51, 2-L-(t-butoxycarbonyl)amino-(3R,4S)-epoxy-1,6-diphenylhexane], the inhibition constant (Ki) was 7000 nM, the kinact was 0.000833 s⁻¹ and the kinact/KI is 118 M⁻¹ s⁻¹.
As for `CC[C@H](C)[C@H](NC(=O)OCc1ccccc1)C(=O)N[C@@H](Cc1ccccc1)[C@H]1O[C@H]1CCc1ccccc1` [compound 54, 2-L-(N-benzyloxycarbonyl-L-isoleucinyl)amino-(3R,4S)-epoxy-1,6-diphenylhexane], the Ki was 1000 nM, the kinact is 0.0075 s⁻¹ and the kinact/KI was 7500 M⁻¹ s⁻¹.
In the case of `NC(=O)CC[C@H](NC(=O)OCc1ccccc1)C(=O)N[C@@H](Cc1ccccc1)[C@H]1O[C@H]1CCc1ccccc1` [compound 55, 2-L-(N-benzyloxycarbonyl-L-glutaminyl)amino-(3R,4S)-epoxy-1,6-diphenylhexane], the Ki worked out at 2200 nM, the kinact is 0.00367 s⁻¹ and the kinact/KI was 1670 M⁻¹ s⁻¹.
The matching figures for `CC(C)C[C@H](NC(=O)[C@H](CC(N)=O)NC(=O)OCc1ccccc1)[C@H]1O[C@H]1CCc1ccccc1` [compound 56, 5-L-(N-benzyloxycarbonyl-L-asparaginyl)amino-(3S,4R)-epoxy-7-methyl-1-phenyloctane]: 44400 nM, 0.00483 s⁻¹ and 108 M⁻¹ s⁻¹.
The matching figures for `NC(=O)C[C@H](NC(=O)COc1ccccc1)C(=O)N[C@@H](Cc1ccccc1)[C@H]1O[C@H]1CCc1ccccc1` [compound 57, 2-L-(N-phenoxyacetyl-L-asparaginyl)amino-(3R,4S)-epoxy-1,6-diphenylhexane]: 12500 nM, 0.0015 s⁻¹ and 120 M⁻¹ s⁻¹.
The matching figures for `NC(=O)C[C@H](NC(=O)COc1ccc(F)cc1F)C(=O)N[C@@H](Cc1ccccc1)[C@H]1O[C@H]1CCc1ccccc1` [compound 58, 2-L-[N-(2,4-difluoro)phenoxyacetyl-L-asparaginyl]amino-(3R,4S)-epoxy-1,6-diphenylhexane]: 3300 nM, 0.0005 s⁻¹ and 152 M⁻¹ s⁻¹.
Turning to `NC(=O)C[C@H](NC(=O)c1ccc2ccccc2[n+]1[O-])C(=O)N[C@@H](Cc1ccccc1)[C@H]1O[C@H]1CCc1ccccc1` [compound 64, 2-L-[N-(N-oxy)quinoline-2-yl-carbonyl-L-asparaginyl]amino-(3R,4S)-epoxy-1,6-diphenylhexane], the Ki turned out to be 3600 nM, the kinact was 0.0015 s⁻¹ and the kinact/KI was 417 M⁻¹ s⁻¹.
The matching figures for `NC(=O)C[C@H](NC(=O)[C@H](Cc1ccccc1)NC(=O)CCN1CCOCC1)C(=O)N[C@@H](Cc1ccccc1)[C@H]1O[C@H]1CCc1ccccc1` [compound 66, 2-L-[N-(N-morpholinepropanecarbonyl-L-phenylalanyl)-L-asparaginyl]amino-(3R,4S)-epoxy-1,6-diphenylhexane]: 550 nM, 0.0128 s⁻¹ and 23300 M⁻¹ s⁻¹.
Regarding `C[C@H](NC(=O)OCc1ccccc1)C(=O)N[C@@H](CC(N)=O)C(=O)N[C@@H](Cc1ccccc1)[C@H]1O[C@H]1CCc1ccccc1` [compound 67, 2-L-[N-(N-benzyloxycarbonyl-L-alanyl)-L-asparaginyl]amino-(3R,4S)-epoxy-1,6-diphenylhexane], the Ki was found to be 260 nM, the kinact is 0.00117 s⁻¹ and the kinact/KI is 4500 M⁻¹ s⁻¹.
With `NC(=O)C[C@H](NC(=O)[C@H](Cc1ccccc1)NC(=O)OCc1ccccc1)C(=O)N[C@@H](Cc1ccccc1)[C@H]1O[C@H]1CCc1ccccc1` [compound 68, 2-L-[N-(N-benzyloxycarbonyl-L-phenylalanyl)-L-asparaginyl]amino-(3R,4S)-epoxy-1,6-diphenylhexane], the Ki stood at 4000 nM, the kinact is 0.000667 s⁻¹ and the kinact/KI was 167 M⁻¹ s⁻¹.
The matching figures for `CC(C)CC[C@@H]1O[C@@H]1[C@H](Cc1ccccc1)NC(=O)[C@H](CC(N)=O)NC(=O)OCc1ccccc1` [compound 69, 2-L-(N-benzyloxycarbonyl-L-asparagyl)amino-(3R,4S)-epoxy-7-methyl-1-phenyloctane]: 550 nM, 0.001 s⁻¹ and 1830 M⁻¹ s⁻¹.
Turning to `O=C(O)CC[C@H](NC(=O)OCc1ccccc1)C(=O)NC[C@@H]1O[C@@H]1[C@H](Cc1ccccc1)NC(=O)[C@H](CCC(=O)O)NC(=O)OCc1ccccc1` [compound 74, 4S-1,4-bis[N-(N'-benzyloxycarbonyl-L-glutamic acidyl)amino]-5-phenyl-(2S,3R)-(Z)-epoxypentane], the Ki is over 10000 nM.
For the compound `CC(C)[C@H](NC(=O)OCc1cccnc1)C(=O)NC[C@@H]1O[C@@H]1[C@H](Cc1ccccc1)NC(=O)[C@@H](NC(=O)OCc1cccnc1)C(C)C` [compound 78], the Ki amounted to 720 nM, the kinact was 0.00167 s⁻¹ and the kinact/KI is 2330 M⁻¹ s⁻¹.
Consider `CC(C)[C@H](NC(=O)OCc1ccncc1)C(=O)NC[C@@H]1O[C@@H]1[C@H](Cc1ccccc1)NC(=O)[C@@H](NC(=O)OCc1ccncc1)C(C)C` [compound 79], for which the affinity corresponds to a Ki of 3000 nM, the kinact is 0.00167 s⁻¹ and the kinact/KI is 550 M⁻¹ s⁻¹.
Take `CC(C)[C@H](NC(=O)N(C)Cc1ccccc1)C(=O)NC[C@@H]1O[C@@H]1[C@H](Cc1ccccc1)NC(=O)[C@@H](NC(=O)N(C)Cc1ccccc1)C(C)C` [compound 81, 4S-1,4-bis[N-[(N'-benzylmethylamino)carbonyl-L-valinyl]amino]-5-phenyl-(2S,3R)-(Z)-epoxypentane]: the Ki is over 10000 nM.
For the compound `CC(C)[C@H](NC=O)C(=O)NC[C@@H]1O[C@@H]1[C@H](Cc1ccccc1)NC(=O)[C@H](CC(N)=O)NC(=O)c1ccc2ccccc2n1` [compound 88], the affinity, expressed as Ki, was 850 nM; the kinact was 0.0367 s⁻¹; the kinact/KI is 43300 M⁻¹ s⁻¹.
The matching figures for `CCC(C)[C@H](NC=O)C(=O)NC[C@@H]1O[C@@H]1[C@H](Cc1ccccc1)NC(=O)[C@H](CC(N)=O)NC(=O)c1ccc2ccccc2n1` (stereo partly shown) [compound 90]: 140 nM, 0.00667 s⁻¹ and 48300 M⁻¹ s⁻¹.
